From US20250025438A1, “Derivative of aspartic acid and use thereof in treatment of metabolic diseases such as hepatic fibrosis and non-alcoholic hepatitis” (SHENZHEN JINGTAI TECHNOLOGY CO., LTD., priority 2021, published 2025)
Where a name gives a salt, the structure may show the parent alone. Read-outs that look alike come from different tables or passages of the source.

Legend:
FN = test: Semi-activated LX2 cells, Western blot: FN protein; format: cell-based; settings: 50-400 μM, 48 hours, FIG. 3, vs 50 μM aspartic acid
[1] = Pharmacokinetic testing in rats; format: in vivo, SD rats
Method: Rats were used as test animals to study the pharmacokinetic behavior of the following compounds in rat plasma.
The drugs were self-made according to the examples of the present invention.
SD rats, 6-8 weeks old, 3 for each administration method/example, male.
The animals were fasted overnight, ate food 8 hours after taking the drug, and drank water freely.
Blood was collected before administration and at 5 min, 15 min, 30 min, 1 hr, 2 hr, 4 hr, 8 hr and 24 hr after administration.
The blood was placed on wet ice and centrifuged to obtain plasma sample (2000 g, 5 min at 4° C.).
The LC-MS/MS method was used to determine the blood drug concentration. The HPLC conditions were: mobile phase A: H2O-0.5% FA; mobile phase B: ACN-0.5% FA;
WinNonlin 8.2 non-compartmental model was used to estimate pharmacokinetic parameters (PK parameters, including but not limited to peak concentration (Cmax), time to peak (Tmax), terminal elimination rate (Ke), terminal elimination half-life (T1/2), area under drug-time curve (AUC), clearance rate (CL), apparent volume of distribution (Vd), mean residence time (MRT), bioavailability (F), etc.).

[2] = male, SD, rat, plasma, PO 20 mg/kg

SMILES	inhibitory effect on FN protein expression as compared to ASP (FN)	AUC compared with rats administrated with aspartic acid ([1]; PO 20 mg/kg)	Cmax compared with rats administrated with aspartic acid ([1]; PO 20 mg/kg)	Tmax compared with rats administered with aspartic acid ([1]; PO 20 mg/kg)	Cmax ([1]; male, SD, rat, plasma, Compound 6 IV 10 mg/kg, read-out: Cmax of Compound 6)	Cmax ([1]; male, SD, rat, plasma, Compound 6 PO 40 mg/kg, read-out: Cmax of Compound 6)	AUC(0-t) [1, 2]	Tmax [1, 2]	Cmax ([1]; male, SD, rat, plasma, PO 20 mg/kg, read-out: Cmax)
COC(=O)C[C@H](N)C(=O)OCOC(=O)[C@@H](N)CC(=O)OC [Compound 54, 4-dimethyl O′1,01-methylene (2S,2'S)-bis (2-aminosuccinate) hydrochloride]	stronger inhibitory effects	–	–	–	–	–	–	–	–
COC(=O)C[C@H](N)C(=O)O [Compound 6]	–	significantly higher	significantly higher	significantly smaller	6100 ng/mL	22500 ng/mL	71300 ng·h/mL	30 min	14800 ng/mL
